Measurements: patent publication US20240174679A1, “HETEROAROYL AMIDES AS LRRK2 INHIBITORS, PHARMACEUTICAL COMPOSITIONS, AND USES THEREOF” (MERCK SHARP & DOHME LLC, priority 2021, published 2024)

Biological target: GST tagged truncated human mutant G2019S LRRK2 (Homo sapiens (Human), UniProt Q5S007, G2019S)
Experiment: LRRK2 Km ATP LanthaScreen Assay
Type: biochemical
Details: 134 μM ATP (Km ATP), LRRKtide substrate, negative log of mean IC50 (molar)
Procedure: Unless otherwise noted, all reactions are magnetically stirred. Unless otherwise noted, when diethyl ether is used in the experiments described below, it is Fisher ACS certified material and is stabilized with BHT. Unless otherwise noted, “concentrated” and/or “solvent removed under reduced pressure” means evaporating the solvent from a solution or mixture using a rotary evaporator or vacuum pump. Unless otherwise noted, flash chromatography is carried out on a Teledyne Isco (Lincoln, NE), Analogix (Burlington, WI), or Biotage (Stockholm, SWE) automated chromatography system using a commercially available cartridge as the column. Columns may be purchased from Teledyne Isco, Analogix, Biotage, Varian (Palo Alto, CA), or Supelco (Bellefonte, PA) and are usually filled with silica gel as the stationary phase. Reversed phase preparative HPLC conditions, where used, can be found at the end of each experimental section. Aqueous solutions were concentrated on a Genevac (Ipswich, ENG) or by freeze-drying/lyophilization. Unless otherwise noted, all LRRK2 pIC50 data presented in tables refers to the LRRK2 G2019S Km ATP LanthaScreen™ assay (Life Technologies Corp., Carlsbad, CA) that is described in the Biological Assay section.
Biological Assay: LRRK2 Km ATP LanthaScreen™ Assay
Compound potency against LRRK2 kinase activity was determined using LanthaScreen™ technology from Life Technologies Corporation (Carlsbad, CA) using a GST20 tagged truncated human mutant G2019S LRRK2 in the presence of the fluorescein-labeled peptide substrate LRRKtide® (LRRK2 phosphorylated ezrin/radixin/moesin (ERM)), also from Life Technologies. The data presented for the Km ATP LanthaScreen™ Assay represents mean IC50 values based on several test results and may have reasonable deviations depending on the specific conditions and reagents used. Km is the Michaelis constant of an enzyme and is defined as the concentration of native substrate (ATP for a kinase) which permits the enzyme to achieve half Vmax (Vmax=rate of reaction when the enzyme is saturated with substrate). IC50 (half-maximal inhibitory concentration) represents the concentration of inhibitor required to inhibit LRRK2 kinase activity by 50%. Assays were performed in the presence of 134 μM ATP (Km ATP). Upon completion, the assay was stopped, and phosphorylated substrate detected with a terbium (Tb)-labeled anti-pERM antibody (cat. no. PV4898). The compound dose response was prepared by diluting a 10 mM stock of compound to a maximum concentration of 9.99 μM in 100% DMSO, followed by custom fold serial dilution in DMSO nine times. 20 nL of each dilution was spotted via a Labcyte Echo onto a 384-well black-sided plate (Corning 3575) followed by 15 μL of a 1.25 nM enzyme solution in 1× assay buffer (50 mM Tris pH 8.5, 10 mM MgCl2, 0.01% Brij-35, 1 mM EGTA, 2 mM dithiothreitol, 0.05 mM sodium orthovanadate). Following a 15-min incubation period at rt, the kinase reaction was started with the addition of 5 μL of 400 nM fluorescein-labeled LRRKtide® (LRRK2 phosphorylated ezrin/radixin/moesin (ERM)) peptide substrate and 134 μM ATP solution in 1× assay buffer. The reaction was allowed to progress at ambient temperature for 90 min. The reaction was then stopped by the addition of 20 μL of TR-FRET Dilution Buffer (Life Technologies, Carlsbad, CA) containing 2 nM Tb-labeled anti-phospho LRRKtide® (LRRK2 phosphorylated ezrin/radixin/moesin (ERM)) antibody and 10 mM EDTA (Life Technologies, Carlsbad, CA). After an incubation period of 1 h at rt, the plate was read on an EnVision® multimode plate reader (Perkin Elmer, Waltham, MA) with an excitation wavelength of 337 nm (Laser) and a reading emission at both 520 and 495 nm. Compound IC50 values were interpolated from nonlinear regression best-fits of the log of the final compound concentration, plotted as a function of the 520/495-nm emission ratio using activity base “Abase”). Abase uses a 4 parameter (4P) logistic fit based on the Levenberg-Marquardt algorithm. […]

Chain of GST tagged truncated human mutant G2019S LRRK2 (Q5S007 970-2527 G2019S): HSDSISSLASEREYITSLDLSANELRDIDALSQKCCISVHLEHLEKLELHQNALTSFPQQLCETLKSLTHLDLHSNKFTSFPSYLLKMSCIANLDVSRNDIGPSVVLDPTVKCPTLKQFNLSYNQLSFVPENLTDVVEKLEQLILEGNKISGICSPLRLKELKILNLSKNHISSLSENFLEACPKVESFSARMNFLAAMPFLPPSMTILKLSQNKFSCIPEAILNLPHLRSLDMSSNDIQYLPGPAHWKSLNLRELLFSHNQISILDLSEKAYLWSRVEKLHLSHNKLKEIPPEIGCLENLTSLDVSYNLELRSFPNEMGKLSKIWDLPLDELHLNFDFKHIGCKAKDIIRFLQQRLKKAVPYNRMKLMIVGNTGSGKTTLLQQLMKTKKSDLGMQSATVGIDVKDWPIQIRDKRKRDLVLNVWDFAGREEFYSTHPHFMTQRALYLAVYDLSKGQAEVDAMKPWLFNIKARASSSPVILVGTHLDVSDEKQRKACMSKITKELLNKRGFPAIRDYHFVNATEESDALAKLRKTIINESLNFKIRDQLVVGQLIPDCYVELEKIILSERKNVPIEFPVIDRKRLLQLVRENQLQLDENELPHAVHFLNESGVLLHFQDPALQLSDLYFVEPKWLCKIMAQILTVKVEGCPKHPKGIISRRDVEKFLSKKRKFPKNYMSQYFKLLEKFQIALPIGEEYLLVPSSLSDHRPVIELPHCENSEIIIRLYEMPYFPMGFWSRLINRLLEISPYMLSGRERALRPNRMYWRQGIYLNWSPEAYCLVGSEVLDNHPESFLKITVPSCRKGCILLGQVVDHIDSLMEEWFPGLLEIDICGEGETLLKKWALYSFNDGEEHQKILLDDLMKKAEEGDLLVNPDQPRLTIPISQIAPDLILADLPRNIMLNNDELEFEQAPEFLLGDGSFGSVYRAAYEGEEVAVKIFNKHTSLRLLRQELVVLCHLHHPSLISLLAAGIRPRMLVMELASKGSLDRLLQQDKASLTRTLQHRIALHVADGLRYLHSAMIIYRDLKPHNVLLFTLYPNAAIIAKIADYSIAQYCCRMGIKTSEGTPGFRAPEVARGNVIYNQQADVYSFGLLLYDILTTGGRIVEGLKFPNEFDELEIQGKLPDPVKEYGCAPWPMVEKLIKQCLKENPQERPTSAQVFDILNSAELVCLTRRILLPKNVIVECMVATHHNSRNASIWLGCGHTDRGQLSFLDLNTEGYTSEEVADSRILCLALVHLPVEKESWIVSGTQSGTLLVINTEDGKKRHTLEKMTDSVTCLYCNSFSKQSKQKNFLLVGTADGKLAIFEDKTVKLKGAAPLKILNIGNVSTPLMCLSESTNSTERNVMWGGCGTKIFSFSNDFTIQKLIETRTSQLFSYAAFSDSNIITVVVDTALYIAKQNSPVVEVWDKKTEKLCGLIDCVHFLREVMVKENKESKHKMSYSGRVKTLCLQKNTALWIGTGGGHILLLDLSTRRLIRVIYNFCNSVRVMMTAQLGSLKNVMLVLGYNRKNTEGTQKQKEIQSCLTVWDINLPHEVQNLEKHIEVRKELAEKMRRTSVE

Row | Structure (SMILES) | LRRK2 pIC50
1 | COc1nn(Cc2nnc3n2CCCCC3)cc1NC(=O)c1csc(-c2cn[nH]c2)n1 [Example 1-28, N-[3-methoxy-1-(6,7,8,9-tetrahydro-5H-[1,2,4]triazolo[4,3-a]azepin-3-ylmethyl)-1H-pyrazol-4-yl]-2-(1H-pyrazol-4-yl)-1,3-thiazole-4-carboxamide] | 6.95
2 | O=C(Nc1cnn(C2CC2)c1)c1csc(-c2cn[nH]c2)n1 [Example 1-25, N-(1-cyclopropyl-1H-pyrazol-4-yl)-2-(1H-pyrazol-4-yl)-1,3-thiazole-4-carboxamide] | 7.65
3 | O=C(Nc1cnn(CC2CC2)c1)c1csc(-c2cn[nH]c2)n1 [Example 7-38, N-[1-(cyclopropylmethyl)-1H-pyrazol-4-yl]-2-(1H-pyrazol-4-yl)-1,3-thiazole-4-carboxamide] | 8.02
4 | CNC(=O)c1nn(C)cc1NC(=O)c1csc(-c2cn[nH]c2)n1 [Example 1-4, N-[1-methyl-3-(methylcarba-moyl)-1H-pyrazol-4-yl]-2-(1H-pyrazol-4-yl)-1,3-thiazole-4-carboxamide] | 8.15
5 | O=C(Nc1cnn(C[C@@H]2CCNC2)c1)c1csc(-c2cn[nH]c2)n1 [Example 7-30, 2-(1H-pyrazol-4-yl)-N-(1-{[(3R)-pyrrolidin-3-yl]methyl}-1H-pyrazol-4-yl)-1,3-thiazole-4-carboxamide] | 6.25
6 | O=C(Nc1cnn(Cc2ccc(F)cc2)c1)c1csc(-c2cn[nH]c2)n1 [Example 7-17, N-[1-(4-fluorobenzyl)-1H-pyrazol-4-yl]-2-(1H-pyrazol-4-yl)-1,3-thiazole-4-carboxamide] | 7.76
7 | COc1nn(CC(F)(F)F)cc1NC(=O)c1csc(-c2cnn(S(C)(=O)=O)c2)n1 [Example 13-1, N-(3-Methoxy-1-(2,2,2-trifluoroethyl)-1H-pyrazol-4-yl)-2-(1-(methylsulfonyl)-1H-pyrazol-4-yl)thiazole-4-carboxamide] | 5.97
8 | Cn1cc(-c2nccc(C(=O)Nc3cnn(C4CCC4)c3)n2)cn1 [Example 9-23, N-(1-cyclobutyl-1H-pyrazol-4-yl)-2-(1-methyl-1H-pyrazol-4-yl)pyrimidine-4-carboxamide] | 7.47
9 | CC(C)c1cc(-n2cc(NC(=O)c3csc(-c4cn[nH]c4)n3)cn2)ccn1 [Example 8-3, N-{1-[2-(1-methylethyl)pyridin-4-yl]-1H-pyrazol-4-yl}-2-(1H-pyrazol-4-yl)-1,3-thiazole-4-carboxamide] | 7.89
10 | Cn1cc(-c2nc(C(=O)Nc3cn(C4CCC4)nc3C3CC3)cs2)cn1 [Example 12-2, N-(1-cyclobutyl-3-cyclopropyl-1H-pyrazol-4-yl)-2-(1-methyl-1H-pyrazol-4-yl)-1,3-thiazole-4-carboxamide] | 7.76
11 | O=C(Nc1cnn(CC2(F)CCC2)c1)c1csc(-c2cn[nH]c2)n1 [Example 1-43, N-{1-[(1-fluorocyclobutyl)methyl]-1H-pyrazol-4-yl}-2-(1H-pyrazol-4-yl)-1,3-thiazole-4-carboxamide] | 7.64
12 | O=C(Nc1cnn(CC2CCC2)c1)c1cccc(-c2cnn(C(F)F)c2)n1 [Example 9-33, N-[1-(cyclobutylmethyl)-1H-pyrazol-4-yl]-6-[1-(difluoromethyl)-1H-pyrazol-4-yl]pyridine-2-carboxamide] | 6.75
13 | O=C(Nc1cnn(-c2ccncc2)c1)c1csc(-c2cn[nH]c2)n1 [Example 1-8, 2-(1H-pyrazol-4-yl)-N-(1-pyridin-4-yl-1H-pyrazol-4-yl)-1,3-thiazole-4-carboxamide] | 8.07
14 | O=C(Nc1cnn(CC2CCC2)c1)c1cccc(-c2cnn(Cc3cccnc3)c2)n1 [Example 9-36, N-[1-(cyclobutylmethyl)-1H-pyrazol-4-yl]-6-[1-(pyridin-3-ylmethyl)-1H-pyrazol-4-yl]pyridine-2-carboxamide] | 6.90
15 | O=C(Nc1cnn(C2CCC2)c1)c1cccc(-n2cccn2)n1 [Example 4-13, N-(1-cyclobutyl-1H-pyrazol-4-yl)-6-(1H-pyrazol-1-yl)pyridine-2-carboxamide] | 6.76
16 | O=C(Nc1cnn(CC2CCNCC2)c1)c1csc(-c2cn[nH]c2)n1 [Example 7-4, N-{1-[(piperidin-4-yl)methyl]-1H-pyrazol-4-yl}-2-(1H-pyrazol-4-yl)-1,3-thiazole-4-carboxamide] | 6.79
17 | O=C(Nc1cn(CC(F)F)nc1C(F)F)c1csc(-c2cn[nH]c2)n1 [Example 7-2, N-[1-(2,2-difluoroethyl)-3-(difluoromethyl)-1H-pyrazol-4-yl]-2-(1H-pyrazol-4-yl)-1,3-thiazole-4-carboxamide] | 7.58
18 | NCC1CCC(F)(Cn2cc(NC(=O)c3csc(-c4cn[nH]c4)n3)cn2)CC1 (stereo not shown) [Example 7-36, N-(1-{[4-(aminomethyl)-1-fluorocyclohexyl]methyl}-1H-pyrazol-4-yl)-2-(1H-pyrazol-4-yl)-1,3-thiazole-4-carboxamide] | 7.65
19 | Cn1cc(NC(=O)c2csc(-c3cn[nH]c3)n2)c(C(N)=O)n1 [Example 1-13, N-(3-carbamoyl-1-methyl-1H-pyrazol-4-yl)-2-(1H-pyrazol-4-yl)-1,3-thiazole-4-carboxamide] | 8.17
20 | CC(C)n1cc(NC(=O)c2csc(-c3cn[nH]c3)n2)c(OCC(F)F)n1 [Example 1-46, N-[3-(2,2-difluoroethoxy)-1-(1-methylethyl)-1H-pyrazol-4-yl]-2-(1H-pyrazol-4-yl)-1,3-thiazole-4-carboxamide] | 7.57
21 | Cc1cc(-n2cc(NC(=O)c3csc(-c4cn[nH]c4)n3)cn2)ccn1 [Example 8-1, N-(1-(2-Methylpyridin-4-yl)-1H-pyrazol-4-yl)-2-(1H-pyrazol-4-yl)thiazole-4-carboxamide] | 7.90
22 | O=C(Nc1cnn(C2CCC2)c1)c1csc(-c2cn[nH]c2)n1 [Example 1-1, N-(1-Cyclobutyl-1H-pyrazol-4-yl)-2-(1H-pyrazol-4-yl)thiazole-4-carboxamide] | 8.01
23 | O=C(Nc1cnn(Cc2ccc(F)cc2)c1)c1coc(-c2cn[nH]c2)n1 [Example 1-45, N-[1-(4-fluorobenzyl)-1H-pyrazol-4-yl]-2-(1H-pyrazol-4-yl)-1,3-oxazole-4-carboxamide] | 6.77
24 | Cn1cc(NC(=O)c2csc(-c3cn[nH]c3)n2)c(Oc2ccccc2)n1 [Example 1-30, N-(1-methyl-3-phenoxy-1H-pyrazol-4-yl)-2-(1H-pyrazol-4-yl)-1,3-thiazole-4-carboxamide] | 7.78
25 | Cn1cc(-c2cccc(C(=O)Nc3cnn(C4CCC4)c3)c2F)cn1 [Example 9-38, N-(1-cyclobutyl-1H-pyrazol-4-yl)-2-fluoro-3-(1-methyl-1H-pyrazol-4-yl)benzamide] | 7.10
26 | COc1nn(CC2CC2(F)F)cc1NC(=O)c1csc(-c2cn[nH]c2)n1 (stereo not shown) [Example 7-39, N-{1-[(2,2-difluorocyclopropyl)methyl]-3-methoxy-1H-pyrazol-4-yl}-2-(1H-pyrazol-4-yl)-1,3-thiazole-4-carboxamide] | 7.74
27 | O=C(Nc1cnn(CC2(F)COC2)c1)c1csc(-c2cn[nH]c2)n1 [Example 5-1, N-(1-((3-Fluorooxetan-3-yl)methyl)-1H-pyrazol-4-yl)-2-(1H-pyrazol-4-yl)thiazole-4-carboxamide] | 7.50
28 | N#CC1(c2cccc(C(=O)Nc3cnn(CC4CCC4)c3)n2)CC1 [Example 10-1, 6-(1-Cyanocyclopropyl)-N-(1-(cyclobutylmethyl)-1H-pyrazol-4-yl)picolinamide] | 6.90
